# According to US12351580B2, “NLRP3 modulators” (Innate Tumor Immunity, Inc., priority 2017, dated 2025):
# How the values were obtained:
# [1] = target: T1, TLR7 (Homo sapiens, UniProt Q9NYK1); assay: In vitro human TLR7 binding reporter assay (HEK-Blue, NF-kB/AP1-inducible SEAP); format: cell-based
# T1 construct: host or cells: HEK-Blue cells (human HEK) co-expressing TLR7 and an NF-kB/AP1-inducible SEAP reporter
# T1 sequence (Q9NYK1 27-1049): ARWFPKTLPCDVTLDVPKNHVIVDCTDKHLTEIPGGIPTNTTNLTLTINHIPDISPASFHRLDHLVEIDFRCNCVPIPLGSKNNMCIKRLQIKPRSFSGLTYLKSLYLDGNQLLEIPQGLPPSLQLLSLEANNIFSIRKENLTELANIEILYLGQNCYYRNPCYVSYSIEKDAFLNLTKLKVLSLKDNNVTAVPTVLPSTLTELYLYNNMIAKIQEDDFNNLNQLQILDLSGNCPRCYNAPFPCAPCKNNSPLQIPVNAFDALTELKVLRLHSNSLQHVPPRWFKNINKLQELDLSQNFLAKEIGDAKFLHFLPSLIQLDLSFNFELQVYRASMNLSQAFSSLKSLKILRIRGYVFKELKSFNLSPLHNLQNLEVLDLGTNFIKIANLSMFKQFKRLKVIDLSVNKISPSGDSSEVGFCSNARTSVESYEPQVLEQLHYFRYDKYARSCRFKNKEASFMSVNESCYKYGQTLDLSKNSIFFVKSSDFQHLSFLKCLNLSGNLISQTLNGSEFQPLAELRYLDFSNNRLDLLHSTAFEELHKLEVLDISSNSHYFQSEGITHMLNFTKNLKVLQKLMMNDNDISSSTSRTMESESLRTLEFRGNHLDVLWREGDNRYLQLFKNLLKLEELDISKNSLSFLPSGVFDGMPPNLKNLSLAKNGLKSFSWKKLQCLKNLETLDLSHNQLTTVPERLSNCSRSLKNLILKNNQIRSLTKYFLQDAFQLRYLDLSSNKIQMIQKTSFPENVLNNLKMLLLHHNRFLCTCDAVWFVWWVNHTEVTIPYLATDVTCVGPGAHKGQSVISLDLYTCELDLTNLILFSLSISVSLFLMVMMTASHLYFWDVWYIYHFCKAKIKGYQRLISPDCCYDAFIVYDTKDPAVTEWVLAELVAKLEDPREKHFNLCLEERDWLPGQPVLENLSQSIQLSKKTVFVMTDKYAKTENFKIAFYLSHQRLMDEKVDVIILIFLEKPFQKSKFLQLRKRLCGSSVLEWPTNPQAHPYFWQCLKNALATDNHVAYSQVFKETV
# In short: (§1)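 Reporter cells are plated at 15,000 per well and rested 24 h. Next day, test compounds or DMSO are dispensed, followed by 18 h incubation at 37 °C, 5% CO2.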
# [2] = target: T2, TLR8 (Homo sapiens, UniProt Q9NR97); assay: In vitro human TLR8 binding reporter assay (HEK-Blue, NF-kB/AP1-inducible SEAP); format: cell-based
# T2 construct: host or cells: HEK-Blue cells (human HEK) co-expressing TLR8 and an NF-kB/AP1-inducible SEAP reporter
# T2 sequence (Q9NR97 27-1041): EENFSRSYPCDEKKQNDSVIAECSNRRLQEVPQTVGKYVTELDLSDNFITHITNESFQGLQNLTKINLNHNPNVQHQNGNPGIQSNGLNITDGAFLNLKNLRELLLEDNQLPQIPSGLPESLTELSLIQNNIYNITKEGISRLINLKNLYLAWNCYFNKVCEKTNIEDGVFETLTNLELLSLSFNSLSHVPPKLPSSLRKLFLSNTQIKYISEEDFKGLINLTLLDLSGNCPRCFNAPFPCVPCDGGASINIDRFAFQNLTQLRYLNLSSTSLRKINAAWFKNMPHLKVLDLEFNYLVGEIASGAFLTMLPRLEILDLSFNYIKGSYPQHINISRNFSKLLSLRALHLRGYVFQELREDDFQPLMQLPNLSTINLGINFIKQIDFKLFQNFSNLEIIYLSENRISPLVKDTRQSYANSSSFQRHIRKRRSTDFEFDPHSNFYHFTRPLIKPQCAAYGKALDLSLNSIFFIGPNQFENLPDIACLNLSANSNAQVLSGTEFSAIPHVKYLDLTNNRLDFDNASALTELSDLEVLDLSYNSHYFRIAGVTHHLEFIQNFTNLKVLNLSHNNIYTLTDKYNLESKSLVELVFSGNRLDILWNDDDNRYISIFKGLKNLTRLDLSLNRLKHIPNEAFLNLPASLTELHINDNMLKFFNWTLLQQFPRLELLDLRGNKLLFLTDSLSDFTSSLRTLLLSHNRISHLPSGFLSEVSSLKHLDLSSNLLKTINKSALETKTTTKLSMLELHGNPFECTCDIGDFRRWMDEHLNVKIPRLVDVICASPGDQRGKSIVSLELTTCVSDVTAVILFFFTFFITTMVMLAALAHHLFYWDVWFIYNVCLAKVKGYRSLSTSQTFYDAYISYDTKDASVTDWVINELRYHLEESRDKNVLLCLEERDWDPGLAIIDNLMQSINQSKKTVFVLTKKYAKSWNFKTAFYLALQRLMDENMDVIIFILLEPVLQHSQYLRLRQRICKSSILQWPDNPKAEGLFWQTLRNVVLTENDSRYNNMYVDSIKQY
# In short: as §1
Structure (SMILES),EC50 ([1]; activity range symbols) [µM],EC50 ([2]; activity range symbols) [µM],EC50 ([1]; numeric bounds) [µM],EC50 ([2]; numeric bounds) [µM]
CN(Cc1nc2c(N)nc3cc(-c4cc[nH]n4)ccc3c2[nH]1)C(=O)CO [Compound 370],> 100,> 100,–,–
CN(Cc1nc2c(N)nc3cc(-c4cc[nH]n4)ccc3c2[nH]1)C(=O)c1nccs1 [Compound 377],> 100,> 100,–,–
CCN(Cc1nc2c(N)nc3cc(-c4ccsc4)ccc3c2[nH]1)C(=O)OC(C)(C)C [Compound 397],> 100,> 100,–,–
CCNCc1nc2c(N)nc3cc(-n4cccn4)ccc3c2[nH]1 [Compound 398],> 100,> 100,–,–
CCNCc1nc2c(N)nc3cc(-c4cccs4)ccc3c2[nH]1 [Compound 399],> 100,> 100,–,–
CNCc1nc2c(N)nc3cc(-n4cccn4)ccc3c2[nH]1 [Compound 402],> 100,> 100,–,–
COc1ccc(Cn2c(CN3CCN(C)C3=O)nc3c(N)nc4cc(-c5cc[nH]n5)ccc4c32)cc1 [Compound 403],> 100,> 100,–,–
COc1ccc(Cn2c(CN3C(=O)OCC3COCc3ccccc3)nc3c(N)nc4cc(-c5cc[nH]n5)ccc4c32)cc1 (centres unmarked) [Compound 404],> 100,> 100,–,–
Nc1nc2cc(-c3cc[nH]n3)ccc2c2[nH]c(CN3C[C@@H](c4ccccc4)CC3=O)nc12 [Compound 407],> 100,> 100,–,–
COc1ccc(Cn2c(Cn3cnccc3=O)nc3c(N)nc4cc(-c5cc[nH]n5)ccc4c32)cc1 [Compound 414],> 100,> 100,–,–
"CCN(Cc1nc2c(N)nc3cc(-c4ccsc4)ccc3c2[nH]1)C(C)=O [Compound 419, N-((4-Amino-7-(thiophen-3-yl)-1H-imidazo[4,5-c]quinolin-2-yl)methyl)-N-ethylacetamide]",> 100,> 100,–,–
CCN(Cc1nc2c(N)nc3cc(-c4ccc(C)cc4)ccc3c2[nH]1)C(C)=O [Compound 422],–,–,> 10,> 10
CCN(Cc1nc2c(N)nc3cc(Br)ccc3c2n1CC(C)C)C(C)=O [Compound 430],> 100,–,–,> 10
N#Cc1ccc(-c2ccc3c(c2)nc(N)c2nc(CN4CCCC4=O)[nH]c23)cc1 [Compound 434],–,–,> 30,> 30
"CCOC(=O)N(CC)Cc1nc2c(N)nc3cc(-c4cc[nH]n4)ccc3c2[nH]1 [Compound 436, Ethyl N-{[4-amino-7-(1H-pyrazol-3-yl)-1H-imidazo[4,5-c]quinolin-2-yl]methyl}-N-ethylcarbamate]",–,–,> 50,> 50
"CCN(Cc1nc2c(N)nc3cc(-c4cc[nH]n4)ccc3c2[nH]1)C(=O)c1ccc(OC)cc1 [Compound 441, N-{[4-amino-7-(1H-pyrazol-3-yl)-1H-imidazo[4,5-c]quinolin-2-yl]methyl}-N-ethyl-4-methoxybenzamide]",> 100,–,–,> 62

# Other lines, results leading:
EC50 ([1]; activity range symbols) [µM],EC50 ([2]; activity range symbols) [µM],EC50 ([1]; numeric bounds) [µM],EC50 ([2]; numeric bounds) [µM],Structure (SMILES)
> 100,> 100,–,–,CN(Cc1nc2c(N)nc3cc(-c4cc[nH]n4)ccc3c2[nH]1)C(=O)CN [Compound 372]
> 100,> 100,–,–,CN(C)C(=O)N(C)Cc1nc2c(N)nc3cc(-c4cc[nH]n4)ccc3c2[nH]1 [Compound 375]
> 100,> 100,–,–,CN(Cc1nc2c(N)nc3cc(-c4cc[nH]n4)ccc3c2[nH]1)C(=O)c1ccccc1 [Compound 376]
> 100,> 100,–,–,CCN(C=O)Cc1nc2c(N)nc3cc(-c4cc[nH]n4)ccc3c2[nH]1 [Compound 379]
> 100,> 100,–,–,CCN(Cc1nc2c(N)nc3cc(-c4cc[nH]n4)ccc3c2[nH]1)C(=O)CN(C)C [Compound 383]
> 100,> 100,–,–,CCN(Cc1nc2c(N)nc3cc(-c4ccn(C)n4)ccc3c2[nH]1)C(=O)OC(C)(C)C [Compound 393]
> 100,> 100,–,–,CCNCc1nc2c(N)nc3cc(-c4ccsc4)ccc3c2[nH]1 [Compound 400]
> 100,> 100,–,–,CNCc1nc2c(N)nc3cc(-c4cc[nH]n4)ccc3c2[nH]1 [Compound 401]
> 100,> 100,–,–,COC(=O)N(C)Cc1nc2c(N)nc3cc(-c4cc[nH]n4)ccc3c2[nH]1 [Compound 405]
> 100,> 100,–,–,CCN(Cc1nc2c(N)nc3cc(-c4cc[nH]n4)ccc3c2[nH]1)C(=O)OC [Compound 406]
> 100,> 100,–,–,Nc1nc2cc(-c3cc[nH]n3)ccc2c2[nH]c(CN3C[C@H](c4ccccc4)CC3=O)nc12 [Compound 408]
> 100,> 100,–,–,COc1ccc(Cn2c(CN3C(=O)OCC3c3ccccc3)nc3c(N)nc4cc(-c5cc[nH]n5)ccc4c32)cc1 (centres unmarked) [Compound 409]
> 100,> 100,–,–,CCN(Cc1nc2c(N)nc3cc(-c4cc[nH]n4)ccc3c2[nH]1)C(=O)C1COC1 [Compound 417]
> 100,> 100,–,–,CCN(Cc1nc2c(N)nc3cc(-c4cc[nH]n4)ccc3c2n1C)C(=O)OC(C)(C)C [Compound 420]
> 100,> 100,–,–,Nc1nc2cc(-n3cccn3)ccc2c2[nH]c(CN3CCCCC3=O)nc12 [Compound 423]
> 100,> 100,–,–,CCN(Cc1nc2c(N)nc3cc(-c4cncc(F)c4)ccc3c2[nH]1)C(C)=O [Compound 427]
> 100,–,–,> 10,CCN(Cc1nc2c(N)nc3cc(Br)ccc3c2n1CCCOC)C(C)=O [Compound 431]
> 100,> 100,–,–,"CCN(Cc1nc2c(N)nc3cc(-c4cc[nH]n4)ccc3c2[nH]1)C(=O)Cc1cccc(C)c1 [Compound 437, N-{[4-amino-7-(1H-pyrazol-3-yl)-1H-imidazo[4,5-c]quinolin-2-yl]methyl}-N-ethyl-2-(3-methylphenyl)acetamide]"
> 100,> 100,–,–,"CCN(Cc1nc2c(N)nc3cc(-c4cc[nH]n4)ccc3c2[nH]1)C(=O)c1cccnc1 [Compound 438, N-{[4-amino-7-(1H-pyrazol-3-yl)-1H-imidazo[4,5-c]quinolin-2-yl]methyl}-N-ethylpyridine-3-carboxamide]"
> 100,> 100,–,–,"CCN(Cc1nc2c(N)nc3cc(-c4cc[nH]n4)ccc3c2[nH]1)C(=O)c1ccccn1 [Compound 439, N-{[4-amino-7-(1H-pyrazol-3-yl)-1H-imidazo[4,5-c]quinolin-2-yl]methyl}-N-ethylpyridine-2-carboxamide]"
> 100,> 100,–,–,"CCN(Cc1nc2c(N)nc3cc(-c4cc[nH]n4)ccc3c2[nH]1)C(=O)CC(C)(C)O [Compound 440, N-{[4-amino-7-(1H-pyrazol-3-yl)-1H-imidazo[4,5-c]quinolin-2-yl]methyl}-N-ethyl-3-hydroxy-3-methylbutanamide]"
